A value given as a limit tells only on which side of the number the result lay.

The assay in a line: Compound was evaluated for its inhibitory potency against Opioid receptor delta 1 of Guinea pig ileum.
Turning to `C[C@@H](c1ccc(O)cc1)[C@H](N)C(=O)N[C@H]1C(=O)NCC(=O)N[C@@H](Cc2ccccc2)C(=O)N[C@@H](C(=O)O)C(C)(C)SSC1(C)C`, it took 7.18 µM to reach half-maximal inhibition (IC50). In other words, the single-digit micromolar range.

Take `C[C@H](c1ccc(O)cc1)[C@@H](N)C(=O)N[C@H]1C(=O)NCC(=O)N[C@@H](Cc2ccccc2)C(=O)N[C@@H](C(=O)O)C(C)(C)SSC1(C)C`: the 50% inhibitory concentration (IC50) (as a rule, the concentration at which inhibition is half-maximal) was more than 100 µM.

For `Cc1cc(O)ccc1C[C@@H](N)C(=O)N[C@H]1C(=O)NCC(=O)N[C@@H](Cc2ccccc2)C(=O)N[C@@H](C(=O)O)C(C)(C)SSC1(C)C`, the half-maximal inhibitory concentration (IC50) came to 6.61 µM. That is a single-digit micromolar value.

The compound `C[C@H](c1ccc(O)cc1)[C@H](N)C(=O)N[C@H]1C(=O)NCC(=O)N[C@@H](Cc2ccccc2)C(=O)N[C@@H](C(=O)O)C(C)(C)SSC1(C)C` gave a concentration for half-maximal inhibition (IC50) of 3.4 µM.

Values taken from BindingDB's records for doi:10.1021/jm00091a006 (University of Arizona, 1992).
